According to ChEMBL document CHEMBL5634112, “Synthesis and biological evaluation of fluoroquinolones containing a pyridoxine derivatives moiety” (Eur J Med Chem, 2023):
In brackets after ≈: the same amount, converted by molar mass.

How the values were obtained:
Bacillus subtilis = assay: Antibacterial activity against Bacillus subtilis 168 assessed as reduction in microbial growth incubated for 24 hrs by broth microdilution method; type: functional
Pseudomonas aeruginosa [1] = assay: Antibacterial activity against Pseudomonas aeruginosa ATCC 27853 assessed as reduction in microbial growth incubated for 24 hrs by broth microdilution method; type: functional
Salmonella typhimurium = assay: Antibacterial activity against Salmonella typhimurium TA100 assessed as reduction in microbial growth incubated for 24 hrs by broth microdilution method; type: functional, Salmonella enterica subsp. enterica serovar Typhimurium; settings: Salmonella enterica
[2] = Cytotoxicity against human CHL assessed as reduction in cell viability incubated for 72 hrs by MTT assay; type: toxicity, cell-based; settings: CHL cells
[3] = Cytotoxicity against human HSF assessed as reduction in cell viability incubated for 72 hrs by MTT assay; type: toxicity, cell-based; settings: HSF cells
[4] = Cytotoxicity against human MSC assessed as reduction in cell viability incubated for 72 hrs by MTT assay; type: toxicity, cell-based; settings: MSC cells
Staphylococcus aureus [5] = assay: In vivo antibacterial activity against Staphylococcus aureus N-10 infected in Po dosed SHK mouse model of sepsis assessed as survival measured after 14 days; type: functional; settings: N-10, 336 h, time 14 day
Micrococcus luteus = assay: Antibacterial activity against clinical isolate Micrococcus luteus assessed as reduction in microbial growth incubated for 24 hrs by broth microdilution method; type: functional
Staphylococcus aureus [6] = assay: Antibacterial activity against clinical isolate Staphylococcus aureus 4721 assessed as reduction in microbial growth incubated for 24 hrs by broth microdilution method; type: functional
Staphylococcus aureus [7] = assay: Antibacterial activity against methicillin sensitive Staphylococcus aureus ATCC 29213 assessed as reduction in microbial growth incubated for 24 hrs by broth microdilution method; type: functional
[8] = test system: Staphylococcus epidermidis; assay: Antibacterial activity against clinical isolate Staphylococcus epidermidis assessed as reduction in microbial growth incubated for 24 hrs by broth microdilution method; type: functional
Escherichia coli [9] = assay: Antibacterial activity against Escherichia coli ATCC 25922 assessed as reduction in microbial growth incubated for 24 hrs by broth microdilution method; type: functional
[10] = test system: Staphylococcus auricularis; assay: Antibacterial activity against clinical isolate Staphylococcus auricularis NKC 7 assessed as reduction in microbial growth incubated for 24 hrs by broth microdilution method; type: functional
[11] = test system: Staphylococcus haemolyticus; assay: Antibacterial activity against clinical isolate Staphylococcus haemolyticus NKC 31/2 assessed as reduction in microbial growth incubated for 24 hrs by broth microdilution method; type: functional
[12] = test system: Staphylococcus epidermidis; assay: Antibacterial activity against clinical isolate Staphylococcus epidermidis NKC 37/1 assessed as reduction in microbial growth incubated for 24 hrs by broth microdilution method; type: functional
Staphylococcus aureus [13] = assay: Antibacterial activity against clinical isolate Staphylococcus aureus 1812 assessed as reduction in microbial growth incubated for 24 hrs by broth microdilution method; type: functional
Staphylococcus aureus [14] = assay: Antibacterial activity against clinical isolate methicillin resistant Staphylococcus aureus 4771 assessed as reduction in microbial growth incubated for 24 hrs by broth microdilution method; type: functional
[15] = test system: Staphylococcus haemolyticus; assay: Antibacterial activity against clinical isolate Staphylococcus haemolyticus 1464 assessed as reduction in microbial growth incubated for 24 hrs by broth microdilution method; type: functional
Enterococcus faecalis = assay: Antibacterial activity against clinical isolate Enterococcus faecalis 1465 assessed as reduction in microbial growth incubated for 24 hrs by broth microdilution method; type: functional
Escherichia coli [16] = assay: Antibacterial activity against clinical isolate Escherichia coli NKC 1 assessed as reduction in microbial growth incubated for 24 hrs by broth microdilution method; type: functional
Pseudomonas aeruginosa [17] = assay: Antibacterial activity against clinical isolate Pseudomonas aeruginosa NKC 17 assessed as reduction in microbial growth incubated for 24 hrs by broth microdilution method; type: functional
Cedecea davisae = assay: Antibacterial activity against clinical isolate Cedecea davisae 1813 assessed as reduction in microbial growth incubated for 24 hrs by broth microdilution method; type: functional
Klebsiella pneumoniae = assay: Antibacterial activity against clinical isolate Klebsiella pneumoniae 1678 assessed as reduction in microbial growth incubated for 24 hrs by broth microdilution method; type: functional
Klebsiella aerogenes = assay: Antibacterial activity against clinical isolate Enterobacter aerogenes NKC 8 assessed as reduction in microbial growth incubated for 24 hrs by broth microdilution method; type: functional
Topoisomerase IV = Topoisomerase IV (Staphylococcus aureus, UniProt P0C1S7+P0C1U9); assay: Inhibition of Staphylococcus aureus topoisomerase-IV assessed as reduction in decatenation using kinetoplast DNA as substrate incubated for 30 mins by ethidium bromide staining based agarose gel electrophoresis method; type: protein-complex assay

| Compound | MIC (Bacillus subtilis) | MIC (Pseudomonas aeruginosa [1]) | MIC (Salmonella typhimurium) | CC50 at 72 h [2] | CC50 at 72 h [3] | CC50 at 72 h [4] | MIC (Staphylococcus aureus [7]) | MIC (Escherichia coli [9]) | other results |
| --- | --- | --- | --- | --- | --- | --- | --- | --- | --- |
| O=C(O)c1cn(C2CC2)c2cc(N3CCNCC3)c(F)cc2c1=O [CIPROFLOXACIN] | 0.5 µg/mL | 1 µg/mL | 1 µg/mL | 29.3 µg/mL (≈ 88.5 µM) | 52.8 µg/mL (≈ 159 µM) | 41.6 µg/mL (≈ 126 µM) |  |  | ED50 (Staphylococcus aureus [5]): 11.2 mg/kg |
| CCn1cc(C(=O)O)c(=O)c2cc(F)c(N3CCN(Cc4cnc(C)c5c4COCO5)CC3)cc21.Cl | 2 µg/mL | > 64 µg/mL | 2 µg/mL | 9.78 µg/mL | 23.4 µg/mL | 21.2 µg/mL | 2 µg/mL | 4 µg/mL | MIC (Micrococcus luteus): 4 µg/mL; MIC (Staphylococcus aureus [6]): 1 µg/mL; MIC [8]: 2 µg/mL; MIC [10]: 0.03 µg/mL; MIC [11]: 8 µg/mL; MIC [12]: 2 µg/mL; MIC (Staphylococcus aureus [13]): 2 µg/mL; MIC (Staphylococcus aureus [14]): 1 µg/mL; MIC [15]: 1 µg/mL; MIC (Enterococcus faecalis): 32 µg/mL; MIC (Escherichia coli [16]): 0.13 µg/mL; MIC (Pseudomonas aeruginosa [17]): 2 µg/mL; MIC (Cedecea davisae): 0.25 µg/mL; MIC (Klebsiella pneumoniae): 4 µg/mL; MIC (Klebsiella aerogenes): 1 µg/mL |
| COc1c(N2C[C@@H]3CCCN[C@@H]3C2)c(F)cc2c(=O)c(C(=O)O)cn(C3CC3)c12 [MOXIFLOXACIN] | 2 µg/mL | 4 µg/mL | 1 µg/mL | 35 µg/mL (≈ 87.2 µM) | 36.5 µg/mL (≈ 90.8 µM) | 39.4 µg/mL (≈ 98.2 µM) | 0.5 µg/mL | 1 µg/mL | IC50 (Topoisomerase IV): 29.9 µM |
